# Source: patent publication US20070078148A1, “Agents for preventing and/or treating higher brain dysfunctions” (Kyowa Hakko Kogyo Co., Ltd., priority 2003, published 2007)
# Marks after values point to notes of the source that are not given here.
# Key:
# Assay type in all cases: in vivo, rat
# [1] = tested on: SD male rats; test: Test for learning of active avoidance (shuttle box, conditioned avoidance behavior); conditions: 1 hour before the test; for Avoidance rate (%): average in 10 rats, Solvent 90.8
# Experimental: Experiment was carried with using 10 SD male rats (body weight: 220-280 g) for one group.
# Using a shuttle box apparatus consisting of two boxes (TK-401S; Unicom), the rats were made to learn and train (escape training) conditioned avoidance behavior. In one trial in the escape training, an alarm stimulus by light and buzzer sound as a conditioned stimulus was given to the rats for 8 seconds. […] Repetition of the trial was conducted at interval times of 5 seconds, and the escape training was repeated 50 trials/1 training/1 day for 10 days.
# The test compound was used as a suspension in injectable distilled water containing 0.3% Tween-80 (by Otsuka Pharmaceutical Co., Ltd.; 0.3% Tween-80 solution) and orally administered to each of the rats at a dose of 10 mL/kg 1 hour before the test (Test compound-administered group). Separately, 0.3% Tween-80 solution alone was orally administered to each of the rats at a dose of 10 mL/kg 1 hour before the test (Solvent-administered group).
# For analysis of the test results, various parameters were inputted in a personal computer (NEC; PC-9821Xe) and the avoidance rate (%) (average in 10 rats; the rats which took avoidance behavior by an alarm stimulus was regarded as successful escape; the avoidance rate when the rat succeeded in escaping all 50 trials was regarded as 100%) and the change of the total reaction latency (the time required for the completion of the whole trial) were compared with those of Solvent-administered group. The analysis was carried out by a Steel-test.
# [2] = tested on: Wistar female rats with bilateral ligation of the common carotid arteries; test: Maze-learning test in rats prepared by bilateral ligation of the common carotid arteries; conditions: FIG. 1
# Experimental: Experiment was carried out using 10 Wistar female rats (body weight 210-310 g) for one group.
# Under anesthesia with pentobarbital, the necks of rats were incised and the bilateral common carotid arteries were ligated (ligated rats). Separately, the necks of rats were incised but the bilateral common carotid arteries were not ligated (sham operation rats). Under anesthesia with pentobarbital, the rat was fixed on a brain-fixing apparatus for rat (Narishige; SR-6). Hydrogen electrodes (Unique Medical; UHE-100, IS needle type) were inserted into a brain coordinate (A2.0, L2.0, D-2.0). Hydrogen indifferent electrode (Unique Medical) was placed on the rat's neck. An artificial respiration was applied to the rat through a respiratory apparatus (Shinano Seisakusyo; SN-480-7), through which about 40 mL of hydrogen gas was forcibly inhaled 2 or 3 times at intervals of about 15 minutes. […]
# Running for the maze-learning test was performed twice. […] At that time, the frequency of selection of the lanes required for obtaining the 4 hollows of milk was recorded up to 16th round of selection.
# The maze-learning test was started from 4 weeks after the bilateral ligation of the common carotid arteries. […] The lanes on which blocks were placed in the first running were determined according to each rat and were maintained constantly during the test period. […]
# [3] = tested on: albino female rats; test: Test for learning of passive avoidance (scopolamine-induced impairment of memory); conditions: for Rate of the rats exhibiting passive avoidance behavior (%) / Rate of the rats exhibiting passive avoidance behavior (rats/total): 2 hours after administration
# Experimental: Experiment was carried out using 32 albino female rats (body weight: about 100 g) for one group.
# Test for learning of passive avoidance was conducted in a test box (40 cm×31 cm×29 cm) in which a stainless steel grid was spread on the floor so that an electric shock of 1.1 mA can be give randomly. In the test box, a plastic plate (15 cm×5 cm) of 0.5 cm thickness was placed at a corner to cover the floor; and the test box comprised a mechanism that when a rat placed on the plate steps down on the floor grid, the rat results in receiving an electric shock. Usually, the rat attacked by an electric shock immediately gets back on the plastic plate but tries to get down on the floor; then, the rat is attacked by an electric shock again. Usually, the rat gradually changes its behavior with repetition of the shock (learning and training), resulting in staying on the plastic plate (passive avoidance behavior).
# After the learning and training, the rats keeping the memory were selected and used for the test based on the memory-keeping test as mentioned below.
# The test compound was used as a suspension thereof in distilled water containing 0.3% Tween-80; and scopolamine was used as a solution thereof in distilled water (by Sigma).
# To each of the rats which learned the passive avoidance behavior, immediately after learning, 1 mg/kg (2 mL/kg volume) of scopolamine (subcutaneous administration) and 2 mL/kg volume of a test compound (oral administration) was administered simultaneously (Test compound-administered group); and 2 hours after administration, the rats were evaluated whether they kept memory of learning of the passive avoidance behavior. Separately, to each of the rats which learned the passive avoidance behavior, immediately after learning, 2 mL/kg volume of 0.3% Tween-80 solution alone was orally administered, and the rats were referred to as Solvent-administered group; while in the same manner, the rats to which 1 mg/kg of scopolamine (2 mL/kg volume) each were administered subcutaneously, were referred to as Scopolamine-administered group.
# [4] = tested on: Wistar (Han) male rats; test: Test for learning a delayed alternating problem (non-matching to sample, Skinner box); conditions: 0.3 mg/kg oral once a day
# Experimental: The test was carried out in a manner similar to the method as described in Drug Dev. Res., 35, p.83-95 (1996).
# Experiment was carried out using 10 Wistar (Han) male rats (body weight 200-250 g) for one group.
# A Skinner box (30 cm×25 cm×30 cm) equipped with 3 pull-type lever (at the center, left and right sides) connected to a feeding vessel (supplying 45 mg diet pellet) was used in the experiment. The control of the test condition and the data accumulation were automatically conducted by connecting with a MED.PC program system.
# Each rat received learning and training of lever pushing, and thereafter learning and training of a delayed alternating problem. In the learning and training of lever pushing, the rat learned and was trained so that the diet could be obtained by pushing any one of the center, left and right pull-type levers. In the subsequent learning and training of delayed alternating problem, the rat learned and was trained that the diet could be obtained by pushing any one of the left and right levers at first, and then the pushed lever was withdrawn; then, 5 seconds after that, both of the left and right levers were presented, but the diet was supplied only when the opposite side lever of the one pushed previously was pushed.
# The test compound was used as a suspension thereof in injectable distilled water containing 0.5% methylcellulose (MC) (Otsuka Pharmaceutical Co.) and was administered orally to each of the rats which learned and trained the lever pushing at a dose of 10 mL/kg volume once a day from the start of learning and training of a delayed alternating problem continuously for a week (Test compound-administered group). Separately, to each of the rats which learned and trained the lever pushing, 0.5% MC solution alone was orally administered at a dose of 10 mL/kg volume once a day from the start of learning and training of a delayed alternating problem continuously for 1 week, and the rats were referred to as Solvent-administered group.
# The accuracy rate for the reaction was indicated by the rate (%) of correctly selecting the left or right lever (average of 10 rats), and the test results were analyzed by one-way ANOVA-Student's t test.
# [5] = 0.3 mg/kg oral with scopolamine 1 mg/kg s.c.
# [6] = 3.0 mg/kg oral with scopolamine 1 mg/kg s.c.
# [7] = 30 mg/kg oral with scopolamine 1 mg/kg s.c.
smiles,measurement,setting,value
COc1cc(/C=C/c2nc3c(c(=O)n(C)c(=O)n3C)n2C)cc(OC)c1OC [Compound 1],Time required for completion of the whole trial (sec),"[1]; 0.3 mg/kg oral, Solvent 99.1",significantly reduced
same,Time required for completion of the whole trial (sec),"[1]; 3.0 mg/kg oral, Solvent 99.1",significantly reduced
same,"Decrease of the learning results (lane selection frequency, second running) caused by bilateral ligation of the common carotid arteries","[2]; 1 mg/kg oral one hour before first trial, p<0.025 vs Solvent-administered group",significantly improved
same,"Decrease of the learning results (lane selection frequency, second running) caused by bilateral ligation of the common carotid arteries","[2]; 3 mg/kg oral one hour before first trial, p<0.005 vs Solvent-administered group",significantly improved
CCn1c(=O)c2c(nc(/C=C/c3ccc(OC)c(OC)c3)n2C)n(CC)c1=O [Compound 2],Rate of the rats exhibiting passive avoidance behavior (%),[3]; [5],(53.1%)
same,Rate of the rats exhibiting passive avoidance behavior (rats/total),[3]; [5],17/32*
same,Rate of the rats exhibiting passive avoidance behavior (%),[3]; [6],(75.0%)
same,Rate of the rats exhibiting passive avoidance behavior (rats/total),[3]; [6],24/32*
same,Rate of the rats exhibiting passive avoidance behavior (%),[3]; [7],(84.4%)
same,Rate of the rats exhibiting passive avoidance behavior (rats/total),[3]; [7],27/32*
same,Rate of the rats exhibiting the passive avoidance behavior in comparison with Scopolamine-administered group,"[3]; administered simultaneously with scopolamine, p<0.05 Two-tailed Chi Square test",significantly increased
same,Time required for completion of the whole trial,"[1]; 0.03 mg/kg oral, Solvent 99.1",81.2 s
same,Avoidance rate (%),[1]; 0.03 mg/kg oral,96.2%
same,Time required for completion of the whole trial (sec),"[1]; 0.3 mg/kg oral, Solvent 99.1",64.9 * sec
same,Avoidance rate (%),[1]; 0.3 mg/kg oral,97.2%
same,Time required for completion of the whole trial (sec),"[1]; 3.0 mg/kg oral, Solvent 99.1",65.3 ** sec
same,Accuracy Rate for the reaction everyday (%) (Mean ± Standard deviation),"[4]; 1st day, Solvent 48.3 ± 2.9",49.7 ± 2.1 NS %
same,Accuracy Rate for the reaction everyday (%) (Mean ± Standard deviation),"[4]; 3rd day, Solvent 39.4 ± 2.9",49.4 ± 3.4 %
same,Accuracy Rate for the reaction everyday (%) (Mean ± Standard deviation),"[4]; 5th day, Solvent 47.7 ± 2.1",60.0 ± 3.0 %
same,Accuracy rate for the reaction in a week (%) (Mean ± Standard deviation),"[4]; in a week, Solvent 45.4 ± 1.6, 0.3 mg/kg",50.6±1.5%
"CN1[C@@H]2C[C@@H](OC(=O)[C@H](CO)c3ccccc3)C[C@H]1[C@@H]1O[C@@H]12 [Scopolamine, scopolamine, reference compound]",Rate of the rats exhibiting passive avoidance behavior (rats/total),"[3]; scopolamine alone 1 mg/kg s.c., Solvent 26/32",4/32
